Reference: article PMC7255104, “Receptor Characterization and Functional Activity of Pyrokinins on the Hindgut in the Adult Mosquito, Aedes aegypti” (Frontiers in Physiology, 2020)
Where a SMILES comes first, the peptide text is derived from it.

Assays:
[1] = biological target: T1, A. aegypti PK2-R (Aedes aegypti, UniProt V9P4J1); test: Heterologous functional receptor assay (aequorin bioluminescence), PK2-R; type: cell-based; conditions: for EC50: CHO-K1 cells transiently expressing PK2-R and aequorin, luminescence normalized to 50 μM ATP, two biological replicates, 4-8 technical replicates each, read-out: EC50, activation of A. aegypti PK2-R
T1 sequence (V9P4J1 1-638): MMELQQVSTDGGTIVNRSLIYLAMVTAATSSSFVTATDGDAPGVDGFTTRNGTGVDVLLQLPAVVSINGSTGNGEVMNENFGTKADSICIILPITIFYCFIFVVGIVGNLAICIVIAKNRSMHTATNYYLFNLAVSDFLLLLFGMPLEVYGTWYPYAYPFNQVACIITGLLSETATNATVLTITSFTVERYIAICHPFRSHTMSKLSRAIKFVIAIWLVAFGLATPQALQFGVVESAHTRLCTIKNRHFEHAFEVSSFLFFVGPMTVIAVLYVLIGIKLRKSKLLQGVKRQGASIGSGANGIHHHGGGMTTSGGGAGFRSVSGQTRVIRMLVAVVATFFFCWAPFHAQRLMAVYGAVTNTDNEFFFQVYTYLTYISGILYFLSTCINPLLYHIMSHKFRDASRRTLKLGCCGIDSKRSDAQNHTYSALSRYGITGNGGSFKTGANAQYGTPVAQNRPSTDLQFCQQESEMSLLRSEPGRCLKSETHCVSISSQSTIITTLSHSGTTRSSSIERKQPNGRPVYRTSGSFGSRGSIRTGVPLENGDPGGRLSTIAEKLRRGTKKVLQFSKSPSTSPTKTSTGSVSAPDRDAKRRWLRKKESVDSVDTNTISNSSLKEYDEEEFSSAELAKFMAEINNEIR
Excerpt: The complete open reading frame was amplified based on the partial ([Nene et al., 2007]) and complete sequences ([Choi et al., 2013]) reported earlier for the A. aegypti PK1-R (Genbank accession: EAT35008.1) and PK2-R (Genbank accession: KC155994.1). Forward 5′-[…]-3′ (PK1-R) or 5′-[…]-3′ (PK2-R) and reverse 5′-[…]-3′ (PK1-R) or 5′-[…]-3′ (PK2-R) primers were designed over the start and stop codons (underlined), respectively, and used to amplify the complete coding sequence using Q5 High-Fidelity DNA polymerase following manufacturer recommendations (New England Biolabs, Whitby, ON). […] The resulting products were cloned into pGEM-T Easy sequencing vector, and miniprep samples were sequenced to verify base accuracy. The receptor constructs were excised using standard restriction enzyme digestion and subcloned into the mammalian expression vector, pcDNA 3.1^+ (Life Technologies, Burlington, ON, Canada). Transfection quality plasmid DNA was purified from an overnight bacterial culture using the PureLink MidiPrep Kit (Invitrogen, Burlington, ON, Canada) following manufacturer guidelines.
Chinese hamster ovary cells (CHO-K1) described previously ([Paluzzi et al., 2012]; [Gondalia et al., 2016]; [Wahedi and Paluzzi, 2018]) were grown in Dulbecco’s modified eagles medium: nutrient F12 (DMEM:F12) media containing 10% heat-inactivated fetal bovine serum (FBS; Wisent, St. Bruno, QC, Canada), 200 μg/mL geneticin, and antimycotic-antibiotic mixture as described previously ([Wahedi and Paluzzi, 2018]). […] Various concentrations of synthesized PK peptides and other peptides (purity > 90%; Genscript, Piscataway, NJ, United States) were prepared in BSA media and loaded in quadruplicate into white 96-well luminescence plates (Greiner Bio-One, Germany).
Luminescence responses to A. aegypti CAPA-1 (GPTVGLFAFPRV-NH2), CAPA-2 (pQGLVPFPRV-NH2) and CAPA-PK1 (AGNSGANSGMWFGPRL-NH2) peptides, along with the R. prolixus PK2 orthologs, PK2a (NTVNFSPRL-NH2), and PK2b (SPPFAPRL-NH2) were examined. A list of peptides used in this study and sequence comparison to native A. aegypti pyrokinin peptides is found in Supplementary Table S1. Cells prepared for the functional assay were loaded into each well of the plate using an automated injector unit and luminescent response was measured with a Synergy 2 Multi-Mode Microplate Reader (BioTek, Winooski, VT, United States). Negative controls were carried out using BSA media alone whereas 50 μM ATP, which activates endogenously expressed purinoceptors ([Iredale and Hill, 1993]; [Michel et al., 1998]), was used as a positive control. Luminescence responses were normalized to ATP responses and analyzed in GraphPad Prism 7.02 (GraphPad Software, San Diego, CA, United States). EC50 values were determined using dose-response curves from multiple biological replicates.

[2] = system: isolated ilea of female A. aegypti; test: Ileal motility assay (video recordings); parameters: species or system Aedes aegypti; conditions: Figure 7, 1 μM, RhoprMIP-7 added together with 1 μM RhoprPK2b, mean of 17 preparations
Protocol: Hindgut contraction assays were conducted on isolated […] of female A. aegypti. […] The isolated tissue was secured with minutien pins within a Sylgard-lined petri-dish. Given its high sequence similarity to endogenous A. aegypti PK2 peptides (Supplementary Table S1), we used the R. prolixus PK2b peptide ([Paluzzi and O'Donnell, 2012]), henceforth referred to as RhoprPK2b, for motility bioassays. Commercially synthesized peptides (Genscript, Piscataway, NJ, United States), […] ([…]) and RhoprPK2[…]), were used to examine myomodulatory activity. Serotonin (5-hydroxytryptamine, 5-HT; Sigma-Aldrich, Oakville, ON, Canada), previously shown to stimulate A. aegypti hindgut contractions ([Messer and Brown, 1995]), was used as a stimulatory control. Given the inhibitory properties of myoinhibitory peptides (having the consensus W(X6)W-NH2 carboxyl terminus) on insect hindgut motility ([Lange et al., 2012]), RhoprMIP-7 ([…]; Genscript, Piscataway, NJ, United States; [Paluzzi et al., 2015]) was used as an inhibitory control. […] Unlike the rectum, the mosquito ileum produces weaker contractions that we were unable to measure using an impedance converter as described above. […] The dissected gut was pinned in the midgut and rectum to allow the ileum to freely contract in saline and following treatments. Contractions were recorded for 2 min in saline that was used for baseline activity measurements, followed by three subsequent 2-min recordings, including: […] The RhoprPK2b was added along with the stimulatory or inhibitory compound (5-HT or RhoprMIP-7, respectively), to maintain its 1 μM concentration in the bath. […] To account for any potential changes in tissue contractile activity upon adding solutions to the bath, each of these variables were measured relative to baseline saline recordings of the same preparation as a ratio of change, where a value above or below one indicates an increase or a decrease, (respectively), in the rate, duration or length between each contraction in response to the treatment.

[3] = system: rectal pad epithelia of female A. aegypti; test: Scanning ion-selective electrode technique (SIET), Na+ flux; parameters: species or system Aedes aegypti
Protocol: Female mosquitoes were anesthetized on ice for 3 min and dissected in Ca^2+-free A. aegypti saline, as described previously ([Paluzzi et al., 2014]), to limit spontaneous hindgut contractions during ion flux measurements. The isolated rectum was then transferred to a Petri dish with saline, pre-coated with poly-L-lysine ([Paluzzi et al., 2014]) to allow the tissue to adhere to the bottom of the dish.
AedaeCAPA-PK1 or D. melanogaster Droso-leucokinin (NSVVLGKKQRFHSWG-NH2, Genscript, Piscataway, NJ, United States; provided by Prof. Dick Nässel, Stockholm University, Sweden) were solubilized in double distilled water as a 1 mM stock and then diluted in the above-mentioned Ca^2+-free A. aegypti saline to achieve a 1 μM final concentration. Control measurements were obtained by applying an equal volume of saline only, referred to as saline control treatments. […]
SIET measurements were obtained through the Automated Scanning Electrode Technique (ASET) software (Science Wares, East Falmouth, MA, United States). […] Voltage gradients were measured as the microelectrode moved perpendicularly to the tissue surface between two points separated by a distance of 100 μm. […] Following background voltage readings, the ion-selective microelectrode tip was positioned at a distance of 2 μm from the rectal pad epithelia. […] Following measurements at the rectal pad sites, background voltage readings were again recorded at a distance of 3 mm away from the tissue.
Calculation of ion flux used in this study has been described previously ([Paluzzi et al., 2014]). […] The change in flux upon treatment application was calculated by subtracting flux values obtained during saline measurements, in which a positive change indicates increased ion absorption, and a negative change represents a decrease in absorption.

CC(C)C[C@H](NC(=O)CNC(=O)[C@@H](NC(=O)[C@@H](NC(=O)[C@@H]1CCCN1C(=O)CN)[C@@H](C)O)C(C)C)C(=O)N[C@@H](Cc1ccccc1)C(=O)N[C@@H](C)C(=O)N[C@@H](Cc1ccccc1)C(=O)N1CCC[C@H]1C(=O)N[C@@H](CCCNC(=N)N)C(=O)N[C@H](C(N)=O)C(C)C [AedaeCAPA-1] (H-GPTVGLFAFPRV-NH2)
activation of PK2-R relative to the highly potent pyrokinins ([1]; CHO-K1 cells expressing PK2-R, very high concentrations): ≤ 25%

CSCC[C@H](NC(=O)CNC(=O)[C@H](CO)NC(=O)[C@H](CC(N)=O)NC(=O)[C@H](C)NC(=O)CNC(=O)[C@H](CO)NC(=O)[C@H](CC(N)=O)NC(=O)CNC(=O)[C@H](C)N)C(=O)N[C@@H](Cc1c[nH]c2ccccc12)C(=O)N[C@@H](Cc1ccccc1)C(=O)NCC(=O)N1CCC[C@H]1C(=O)N[C@@H](CCCNC(=N)N)C(=O)N[C@@H](CC(C)C)C(N)=O [AedaeCAPA-PK1] (H-AGNSGANSGMWFGPRL-NH2)
EC50 [1]: 158 nM

CC(C)C[C@H](NC(=O)[C@H](CCCNC(=N)N)NC(=O)[C@@H]1CCCN1C(=O)[C@H](CO)NC(=O)[C@H](Cc1ccccc1)NC(=O)[C@H](CC(N)=O)NC(=O)[C@@H](NC(=O)[C@@H](NC(=O)[C@@H](N)CC(N)=O)[C@@H](C)O)C(C)C)C(N)=O [RhoprPK2a] (H-NTVNFSPRL-NH2)
EC50 [1]: 17.5 nM

CC(C)C[C@H](NC(=O)[C@H](CCCNC(=N)N)NC(=O)[C@@H]1CCCN1C(=O)[C@H](C)NC(=O)[C@H](Cc1ccccc1)NC(=O)[C@@H]1CCCN1C(=O)[C@@H]1CCCN1C(=O)[C@@H](N)CO)C(N)=O [RhoprPK2b] (H-SPPFAPRL-NH2)
EC50 [1]: 8.54 nM

AWNSLHGGW-NH2 [RhoprMIP-7]
duration of each ileal contraction relative to baseline [2]: about 1.9 fold
ileal contraction frequency relative to baseline [2]: 0.38 fold
relaxation duration (length of time between ileal contractions) relative to baseline [2]: 3.9 fold

NSVVLGKKQRFHSWG-NH2 [Droso-leucokinin, D. melanogaster kinin analog used in Na+ transport measurements]
decrease in Na+ absorption across rectal pad epithelia relative to initial transport in saline ([3]; 1 μM in Ca2+-free saline, absorptive female recta only, mean ± SEM of 10 to 14 preparations, SEM): 201.6 ± 39.0 pmol cm^–2 s^–1
fold decrease in Na+ absorption compared to saline control ([3]; 1 μM, female rectal pad epithelia): four-fold decrease
significance of change in Na+ transport versus saline alone ([3]; 1 μM, one-way ANOVA and Tukey's post hoc test): significant
